Data taken from ChEMBL document CHEMBL5724914, “Linking interpersonal differences in gut microbiota composition and drug biotransformation activity” (2024).

What was measured:
[1] = (§1) The drug is tested on Z-016 corresponding to mouse gut metagenome with ENA study accession number: PRJEB37062 and ENA sample accession number: ERS12561815 for biotransformation under anaerobic condition. The drug concentrations were measured over 9 timepoints collected between 0 and 24 hours of incubation by liquid-chromatography-coupled mass spectrometry (LC–MS); conditions: 2 µM
[2] = human gut metagenome, 24 h, 2 µM
[3] = human gut metagenome, 24 h, 2 µM; remark: listed apart in the source
[4] = as §1, with “Z-023” for “Z-016”, “to” for “to mouse gut”, “ERS12561822” for “ERS12561815”; conditions: 2 µM
[5] = human gut metagenome, 24 h, 2 µM; remark: listed apart in the source
[6] = as §1, with “WLS-039” for “Z-016”, “human” for “mouse”, “ERS12561746” for “ERS12561815”; conditions: 2 µM
[7] = as §1, with “WLS-069” for “Z-016”, “human” for “mouse”, “ERS12561748” for “ERS12561815”; conditions: 2 µM
[8] = human gut metagenome, 24 h, 2 µM; remark: listed apart in the source
[9] = as §1, with “Z-008” for “Z-016”, “to” for “to mouse gut”, “ERS12561808” for “ERS12561815”; conditions: 2 µM
[10] = as §1, with “WLS-052” for “Z-016”, “human” for “mouse”, “ERS12561747” for “ERS12561815”; conditions: 2 µM
[11] = as §1, with “WLS-310” for “Z-016”, “human” for “mouse”, “ERS12561785” for “ERS12561815”; conditions: 2 µM
[12] = human gut metagenome, 24 h, 2 µM; remark: listed apart in the source
[13] = as §1, with “Z-009” for “Z-016”, “pig” for “mouse”, “ERS12561809” for “ERS12561815”; conditions: 2 µM
[14] = as §1, with “WLS-090” for “Z-016”, “human” for “mouse”, “ERS12561753” for “ERS12561815”; conditions: 2 µM
[15] = human gut metagenome, 24 h, 2 µM; remark: listed apart in the source
[16] = human gut metagenome, 24 h, 2 µM; remark: listed apart in the source
[17] = human gut metagenome, 24 h, 2 µM; remark: listed apart in the source
[18] = as §1, with “WLS-220” for “Z-016”, “human” for “mouse”, “ERS12561769” for “ERS12561815”; conditions: 2 µM
[19] = as §1, with “Z-030” for “Z-016”, “ERS12561829” for “ERS12561815”; conditions: 2 µM
[20] = as §1, with “Z-017” for “Z-016”, “ERS12561816” for “ERS12561815”; conditions: 2 µM
Also: call rule not given here.

Nc1ccc(/N=N/c2ccccc2)c(N)n1 [PHENAZOPYRIDINE]
Bacterial Biotransformation [1]: Compound metabolized | Bacterial Biotransformation [2]: Compound metabolized | Bacterial Biotransformation [3]: Compound metabolized | Bacterial Biotransformation [4]: Compound metabolized | Bacterial Biotransformation [5]: Compound metabolized | Bacterial Biotransformation [6]: Compound metabolized | Bacterial Biotransformation [7]: Compound metabolized | Bacterial Biotransformation [8]: Compound metabolized | Bacterial Biotransformation [9]: Compound metabolized | Bacterial Biotransformation [10]: Compound metabolized | Bacterial Biotransformation [11]: Compound metabolized | Bacterial Biotransformation [12]: Compound metabolized | Bacterial Biotransformation [13]: Compound metabolized | Bacterial Biotransformation [14]: Compound metabolized | Bacterial Biotransformation [15]: Compound metabolized | Bacterial Biotransformation [16]: Compound metabolized | Bacterial Biotransformation [17]: Compound metabolized | Bacterial Biotransformation [18]: Compound metabolized | Bacterial Biotransformation [19]: Compound metabolized | Bacterial Biotransformation [20]: Compound metabolized

CC(C(=O)O)c1ccc2c(c1)Cc1cccnc1O2 (stereo not given) [PRANOPROFEN]
Bacterial Biotransformation [1]: Compound metabolized | Bacterial Biotransformation [2]: Compound metabolized | Bacterial Biotransformation [3]: Compound metabolized | Bacterial Biotransformation [4]: Compound metabolized | Bacterial Biotransformation [5]: Compound metabolized | Bacterial Biotransformation [6]: Compound metabolized | Bacterial Biotransformation [7]: Compound metabolized | Bacterial Biotransformation [8]: Compound metabolized | Bacterial Biotransformation [9]: Compound metabolized | Bacterial Biotransformation [10]: Compound metabolized | Bacterial Biotransformation [11]: Compound metabolized | Bacterial Biotransformation [12]: Compound metabolized | Bacterial Biotransformation [13]: Compound metabolized | Bacterial Biotransformation [14]: Compound metabolized | Bacterial Biotransformation [15]: Compound metabolized | Bacterial Biotransformation [16]: Compound metabolized | Bacterial Biotransformation [17]: Compound metabolized | Bacterial Biotransformation [18]: Compound metabolized | Bacterial Biotransformation [19]: Compound metabolized | Bacterial Biotransformation [20]: Compound NOT metabolized

CCc1nc(N)nc(N)c1-c1ccc(Cl)cc1 [PYRIMETHAMINE]
Bacterial Biotransformation [1]: Compound NOT metabolized | Bacterial Biotransformation [2]: Compound NOT metabolized | Bacterial Biotransformation [3]: Compound NOT metabolized | Bacterial Biotransformation [4]: Compound NOT metabolized | Bacterial Biotransformation [5]: Compound NOT metabolized | Bacterial Biotransformation [6]: Compound NOT metabolized | Bacterial Biotransformation [7]: Compound NOT metabolized | Bacterial Biotransformation [8]: Compound NOT metabolized | Bacterial Biotransformation [9]: Compound NOT metabolized | Bacterial Biotransformation [10]: Compound NOT metabolized | Bacterial Biotransformation [11]: Compound NOT metabolized | Bacterial Biotransformation [12]: Compound NOT metabolized | Bacterial Biotransformation [13]: Compound NOT metabolized | Bacterial Biotransformation [14]: Compound metabolized | Bacterial Biotransformation [15]: Compound metabolized | Bacterial Biotransformation [16]: Compound NOT metabolized | Bacterial Biotransformation [17]: Compound NOT metabolized | Bacterial Biotransformation [18]: Compound NOT metabolized | Bacterial Biotransformation [19]: Compound NOT metabolized | Bacterial Biotransformation [20]: Compound NOT metabolized

COc1ccccc1OCC(O)CN1CCN(CC(=O)Nc2c(C)cccc2C)CC1 (stereo not given) [RANOLAZINE]
Bacterial Biotransformation [1]: Compound NOT metabolized | Bacterial Biotransformation [2]: Compound NOT metabolized | Bacterial Biotransformation [3]: Compound NOT metabolized | Bacterial Biotransformation [4]: Compound metabolized | Bacterial Biotransformation [5]: Compound NOT metabolized | Bacterial Biotransformation [6]: Compound NOT metabolized | Bacterial Biotransformation [7]: Compound NOT metabolized | Bacterial Biotransformation [8]: Compound NOT metabolized | Bacterial Biotransformation [9]: Compound NOT metabolized | Bacterial Biotransformation [10]: Compound NOT metabolized | Bacterial Biotransformation [11]: Compound NOT metabolized | Bacterial Biotransformation [12]: Compound NOT metabolized | Bacterial Biotransformation [13]: Compound NOT metabolized | Bacterial Biotransformation [14]: Compound NOT metabolized | Bacterial Biotransformation [15]: Compound NOT metabolized | Bacterial Biotransformation [16]: Compound NOT metabolized | Bacterial Biotransformation [17]: Compound NOT metabolized | Bacterial Biotransformation [18]: Compound NOT metabolized | Bacterial Biotransformation [19]: Compound NOT metabolized | Bacterial Biotransformation [20]: Compound NOT metabolized

CN(C)CCc1c[nH]c2ccc(Cn3cncn3)cc12.O=C(O)c1ccccc1 [RIZATRIPTAN BENZOATE]
Bacterial Biotransformation [1]: Compound NOT metabolized | Bacterial Biotransformation [2]: Compound NOT metabolized | Bacterial Biotransformation [3]: Compound NOT metabolized | Bacterial Biotransformation [4]: Compound NOT metabolized | Bacterial Biotransformation [5]: Compound NOT metabolized | Bacterial Biotransformation [6]: Compound NOT metabolized | Bacterial Biotransformation [7]: Compound NOT metabolized | Bacterial Biotransformation [8]: Compound NOT metabolized | Bacterial Biotransformation [9]: Compound NOT metabolized | Bacterial Biotransformation [10]: Compound NOT metabolized | Bacterial Biotransformation [11]: Compound NOT metabolized | Bacterial Biotransformation [12]: Compound NOT metabolized | Bacterial Biotransformation [13]: Compound NOT metabolized | Bacterial Biotransformation [14]: Compound NOT metabolized | Bacterial Biotransformation [15]: Compound NOT metabolized | Bacterial Biotransformation [16]: Compound NOT metabolized | Bacterial Biotransformation [17]: Compound NOT metabolized | Bacterial Biotransformation [18]: Compound NOT metabolized | Bacterial Biotransformation [19]: Compound NOT metabolized | Bacterial Biotransformation [20]: Compound NOT metabolized

CCCc1nn(C)c2c(=O)[nH]c(-c3cc(S(=O)(=O)N4CCN(C)CC4)ccc3OCC)nc12.O=C(O)CC(O)(CC(=O)O)C(=O)O [SILDENAFIL CITRATE]
Bacterial Biotransformation [1]: Compound NOT metabolized | Bacterial Biotransformation [2]: Compound NOT metabolized | Bacterial Biotransformation [3]: Compound NOT metabolized | Bacterial Biotransformation [4]: Compound metabolized | Bacterial Biotransformation [5]: Compound NOT metabolized | Bacterial Biotransformation [6]: Compound NOT metabolized | Bacterial Biotransformation [7]: Compound NOT metabolized | Bacterial Biotransformation [8]: Compound NOT metabolized | Bacterial Biotransformation [9]: Compound NOT metabolized | Bacterial Biotransformation [10]: Compound NOT metabolized | Bacterial Biotransformation [11]: Compound metabolized | Bacterial Biotransformation [12]: Compound metabolized | Bacterial Biotransformation [13]: Compound NOT metabolized | Bacterial Biotransformation [14]: Compound metabolized | Bacterial Biotransformation [15]: Compound metabolized | Bacterial Biotransformation [16]: Compound NOT metabolized | Bacterial Biotransformation [17]: Compound NOT metabolized | Bacterial Biotransformation [18]: Compound NOT metabolized | Bacterial Biotransformation [19]: Compound NOT metabolized | Bacterial Biotransformation [20]: Compound NOT metabolized

CN1C(C(=O)Nc2ccccn2)=C(O)c2sccc2S1(=O)=O [TENOXICAM]
Bacterial Biotransformation [1]: Compound NOT metabolized | Bacterial Biotransformation [2]: Compound NOT metabolized | Bacterial Biotransformation [3]: Compound NOT metabolized | Bacterial Biotransformation [4]: Compound metabolized | Bacterial Biotransformation [5]: Compound metabolized | Bacterial Biotransformation [6]: Compound NOT metabolized | Bacterial Biotransformation [7]: Compound NOT metabolized | Bacterial Biotransformation [8]: Compound NOT metabolized | Bacterial Biotransformation [9]: Compound NOT metabolized | Bacterial Biotransformation [10]: Compound NOT metabolized | Bacterial Biotransformation [11]: Compound NOT metabolized | Bacterial Biotransformation [12]: Compound NOT metabolized | Bacterial Biotransformation [13]: Compound NOT metabolized | Bacterial Biotransformation [14]: Compound NOT metabolized | Bacterial Biotransformation [15]: Compound NOT metabolized | Bacterial Biotransformation [16]: Compound NOT metabolized | Bacterial Biotransformation [17]: Compound NOT metabolized | Bacterial Biotransformation [18]: Compound NOT metabolized | Bacterial Biotransformation [19]: Compound NOT metabolized | Bacterial Biotransformation [20]: Compound NOT metabolized
